Assay results reported in patent US4564684A, “3-Amino-1-phenyl-2-pyrazolines” (priority 1980, dated 1986).
Structures can show the parent of a compound that is named as a salt.

Key:
cyclo-oxygenase = assay: Inhibition of cyclo-oxygenase in an enzyme assay according to the method of Blackwell and Flower; type: biochemical; settings: Table I, read-out: ED50 for inhibition of cyclo-oxygenase
lipoxygenase = assay: Inhibition of lipoxygenase in an enzyme assay according to the method of Blackwell and Flower; type: biochemical; settings: Table I, read-out: ED50 for inhibition of lipoxygenase

Compound | IC50 (cyclo-oxygenase) [nM] | IC50 (lipoxygenase) [nM]
CCCCNC1=NN(c2cccc(C(F)(F)F)c2)CC1 [Example 4, 3-butylamino-1-(3-trifluoromethylphenyl)-2-pyrazoline] | < 300 | < 300
FC(F)(F)c1cccc(N2CCC(NCc3ccccc3)=N2)c1 [Example 5, 3-benzylamino-1-(3-trifluoromethylphenyl)-2-pyrazoline hydrochloride] | ~300 | ~300
CCCNC1=NN(c2cccc(C(F)(F)F)c2)CC1 [Example 3, 3-propylamino-1-(3-trifluoromethylphenyl)-2-pyrazoline] | < 300 | < 300
CCNC1=NN(c2cccc(C(F)(F)F)c2)CC1 [Example 2, 3-ethylamino-1-(3-trifluoromethylphenyl)-2-pyrazoline] | ~800 | ~700
CNC1=NN(c2cccc(C(F)(F)F)c2)CC1 [Example 1, 3-methylamino-1-(3-trifluoromethylphenyl)-2-pyrazoline] | ~300 | ~300
